# Tested on: 171881-019-R-J1-PDC complex spheroid growth, % test/control
# Test: Anticancer human tumor 171881-019-R-J1-PDC patient-derived invasive breast carcinoma cell line growth inhibition [Asc]
# Settings: for IC50: curve of first compound; for viability, T/C: stronger effect = lower value
# In short: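 Tumor cells were grown as complex spheroids with human endothelial cells (HUVEC) and human mesenchymal stem cells as stroma. Agents were tested alone and in combination, in half-log steps down from the clinical Cmax, or from 10 microM where Cmax was unknown.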
# 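Wherever viability, T/C is given: spheroids exposed to compounds for 7 days.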
smiles,measurement,setting,value
Cc1nc(N2CCC3(CC2)COC(C)C3N)c(CO)nc1Sc1ccnc(N)c1Cl (stereo not given) + Cc1c(S(C)(=O)=O)c(-c2cc(F)cc(N3CCN(c4ccc(NS(=O)(=O)c5ccc(NC(CCN6CCC(C(=O)OCCCP(=O)(O)O)CC6)CSc6ccccc6)c(S(=O)(=O)C(F)(F)F)c5)cc4)CC3)c2)c(-c2ccc(Cl)cc2)n1C(C)C,IC50,second compound 0.1 µM,> 3000 nM
same,IC50,second compound 0.316 µM,> 3000 nM
same,IC50,second compound 1 µM,> 3000 nM
same,IC50,second compound 3.16 µM,2200 nM
same,IC50,second compound 10 µM,884 nM
same,"viability, T/C","second compound 0.1 µM, first compound 0.00949 µM",127%
same,"viability, T/C","second compound 0.1 µM, first compound 0.03 µM",182%
same,"viability, T/C","second compound 0.1 µM, first compound 0.0949 µM",201%
same,"viability, T/C","second compound 0.1 µM, first compound 0.3 µM",141%
same,"viability, T/C","second compound 0.1 µM, first compound 0.949 µM",118%
same,"viability, T/C","second compound 0.1 µM, first compound 3 µM",102%
same,"viability, T/C","second compound 0.316 µM, first compound 0.00949 µM",161%
same,"viability, T/C","second compound 0.316 µM, first compound 0.03 µM",223%
same,"viability, T/C","second compound 0.316 µM, first compound 0.0949 µM",187%
same,"viability, T/C","second compound 0.316 µM, first compound 0.3 µM",137%
same,"viability, T/C","second compound 0.316 µM, first compound 0.949 µM",97.3%
same,"viability, T/C","second compound 0.316 µM, first compound 3 µM",75.4%
same,"viability, T/C","second compound 1 µM, first compound 0.00949 µM",181%
same,"viability, T/C","second compound 1 µM, first compound 0.03 µM",201%
same,"viability, T/C","second compound 1 µM, first compound 0.0949 µM",144%
same,"viability, T/C","second compound 1 µM, first compound 0.3 µM",104%
same,"viability, T/C","second compound 1 µM, first compound 0.949 µM",80.4%
same,"viability, T/C","second compound 1 µM, first compound 3 µM",66.6%
same,"viability, T/C","second compound 3.16 µM, first compound 0.00949 µM",180%
same,"viability, T/C","second compound 3.16 µM, first compound 0.03 µM",174%
same,"viability, T/C","second compound 3.16 µM, first compound 0.0949 µM",113%
same,"viability, T/C","second compound 3.16 µM, first compound 0.3 µM",80.5%
same,"viability, T/C","second compound 3.16 µM, first compound 0.949 µM",59%
same,"viability, T/C","second compound 3.16 µM, first compound 3 µM",51.7%
same,"viability, T/C","second compound 10 µM, first compound 0.00949 µM",177%
same,"viability, T/C","second compound 10 µM, first compound 0.03 µM",148%
same,"viability, T/C","second compound 10 µM, first compound 0.0949 µM",112%
same,"viability, T/C","second compound 10 µM, first compound 0.3 µM",76.7%
same,"viability, T/C","second compound 10 µM, first compound 0.949 µM",41.8%
same,"viability, T/C","second compound 10 µM, first compound 3 µM",40.5%
